Reference: US9765077B2, “Synthesis of duocarmycin analogues” (University of East Anglia, priority 2015, dated 2017)
Structures can show the parent of a compound that is named as a salt.

System: HL60 human leukaemia cell lines
Assay: Antiproliferative activity by MTS assay (CellTiter 96 Aqueous One Solution)
Format: cell-based
Conditions: HL-60, HL60 cells, 72 hr treatment, triplicate
Procedure: Antiproliferative activity was determined by MTS assay (Howell L A, Bowater R A, O'Connell M A, Reszka A P, Neidle S, Searcey M. (2012) Synthesis of Small Molecules Targeting Multiple DNA Structures using Click Chemistry. ChemMedChem, 7, 792-804) using the CellTiter 96 Aqueous One Solution Cell Proliferation Assay (Promega) and following the manufacturer's instructions.
The HL60 cell line was purchased from ECACC (Porton Down, UK). Cells were cultured in RPMI 1640 medium supplemented with 10% foetal calf serum and 2 mM L-glutamine. HL-60 cells were passaged twice weekly and maintained between 1-9×10^5 cells/ml at 37° C. and 5% CO2.
HL-60 cells (3×10^4/100 μl) were seeded in 96-well plates and left untreated or treated with DMSO (vehicle control), duocarmycins, or doxorubicin hydrochloride at 8 concentrations (see below) in triplicate for 72 hr at 37° C. with 5% CO2. Following this, MTS assay reagent was added for 4 hrs and the absorbance measured at 490 nm using the Polarstar Optima microplate reader (BMG Labtech). IC50 values were calculated using GraphPad Prism Version 5.0 software.

- IC50: 125 nM
Structure (SMILES): COc1cccc2c1C(=O)c1c(O)c3c(c(O)c1C2=O)C[C@@](O)(C(=O)CO)C[C@@H]3O[C@H]1C[C@H](N)[C@H](O)[C@H](C)O1 [Doxorubicin, doxorubicin hydrochloride]
